This note sets out measurements from paper doi:10.1101/2022.06.13.495986v1 (biorxiv, 2022).

This assay has as its target T1, HepII (Heptosyltransferase II) (Escherichia coli, UniProt P37692).
T1 sequence (P37692 1-348): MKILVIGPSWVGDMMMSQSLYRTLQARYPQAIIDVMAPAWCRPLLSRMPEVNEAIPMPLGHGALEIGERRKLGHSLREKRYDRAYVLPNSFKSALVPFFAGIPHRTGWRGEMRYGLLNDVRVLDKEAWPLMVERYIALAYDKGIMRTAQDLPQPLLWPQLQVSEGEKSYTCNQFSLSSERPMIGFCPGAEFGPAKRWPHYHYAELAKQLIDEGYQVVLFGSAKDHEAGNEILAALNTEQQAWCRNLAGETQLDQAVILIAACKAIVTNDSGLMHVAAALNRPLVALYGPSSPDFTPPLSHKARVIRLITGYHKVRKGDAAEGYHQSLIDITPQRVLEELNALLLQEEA
The experiment in a line: tryptophan fluorescence quenching. The assay is classed as binding.

Take `Nc1ncnc2c1ncn2[C@@H]1O[C@H](COP(=O)(O)OP(=O)(O)O[C@@H]2O[C@H]([C@@H](O)CO)[C@@H](O)[C@H](O)[C@@H]2O)[C@@H](O)[C@H]1O` [ADP-Hep]: the Kd (as a rule, the concentration at which binding is half-saturated) came to 660 ± 460 nM.
